Measurements: patent US6737383B1, “Herbicidal oxadiazolidines” (priority 1999, dated 2004)

Legend:
wheat = experiment: Test B pre/postemergence wheat; assay type: in vivo, Triticum aestivum
How it was run: (§1)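 Herbicidal effect was estimated by eye on a ten-point control scale after plants spent twelve to sixteen days in a greenhouse following soil or foliar treatment. Foliar sprays targeted plants at one to four leaves; all doses were formulated in a non-phytotoxic solvent with surfactant.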

Johnson grass = experiment: Test D Johnson grass; assay type: in vivo, Sorghum halepense; conditions: Preemergence, 0 to 100 scale
Description: (§2) Seeds, tubers, or plant parts of Alexandergrass (Brachiaria plantaginea), bermuda-grass (Cynodon dactylon), common pursiane (Portulaca oleracea), common ragweed (Ambrosia elatior), common groundsel (Senecio vulgaris), dallisgrass (Paspalum dilatatum), goosegrass (Eleusine indica), guineagrass (Panicum maximum), itchgrass (Rottboellia exaltata), Johnson grass (Sorghum halepense), large crabgrass (Digitaria sanguinalis), pitted morningglory (Ipomoea lacunosa), purple nutsedge (Cyperus rotundus), sandbur (Cenchrus echinatus), sourgrass (Trichachne insularis), Spanishneedles (Bidens bipinnata), surinam grass (Brachiaria decumbens) and tall mallow (Malva sylvestris) were planted into greenhouse pots of flats containing greenhouse planting medium. Plant species were grown in separate pots or individual compartments. Preemergence applications were made within one day of planting the seed or plant part.
(§3) Test chemicals were formulated in a non-phytotoxic solvent mixture which included a surfactant and applied preemergence to the surface of the pot containing seeds in a sandy loam soil. Untreated control pots and treated pots were placed in the greenhouse for growth and visually evaluated for injury 14 to 21 days after herbicide application. Plant response ratings, summarized in Table C, are based on a 0 to 100 scale where 0 is no injury and 100 is complete control. A dash (−) response means no test result.

giant foxtail = experiment: Test B pre/postemergence giant foxtail; assay type: in vivo, Setaria faberii
How it was run: as §1

duck salad = experiment: Test B flood test duck salad; assay type: in vivo, Heteranthera limosa
How it was run: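 Read-out is a visual response score from 0 (no effect) to 10 (complete control), assigned by comparison with untreated controls. Treatment was applied at the 2-leaf stage, and plants stayed in the greenhouse for twelve to sixteen days before scoring.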

purple nutsedge = experiment: Test D purple nutsedge; assay type: in vivo, Cyperus rotundus; conditions: Preemergence, 0 to 100 scale
Description: as §2, §3

common pursiane = experiment: Test D common purslane; assay type: in vivo, Portulaca oleracea; conditions: Preemergence, 0 to 100 scale
Description: as §2, §3

crabgrass = experiment: Test B pre/postemergence crabgrass; assay type: in vivo, Digitaria sanguinalis
How it was run: as §1

[1] = Postemergence, Rate 62 g/ha, scale 0 to 10, 0 is no effect, 10 is complete control
[2] = Postemergence, Rate 250 g/ha, scale 0 to 10, 0 no effect, 10 complete control
[3] = Preemergence, Rate 31 g/ha, visual rating, scale 0 to 10 (0 no effect, 10 complete control)
[4] = Preemergence, Rate 62 g/ha, scale 0 to 10, 0 is no effect, 10 is complete control
[5] = Preemergence, Rate 125 g/ha, scale 0 to 10 (0 no effect, 10 complete control)
[6] = Preemergence, Rate 250 g/ha, scale of 0 to 10 where 0 is no effect and 10 is complete control
[7] = Rate 125 g/ha, Postemergence, scale 0 to 10, 0 no effect, 10 complete control
[8] = Rate 32 g/ha, 0 no injury, 100 complete control
[9] = Rate 64 g/ha, 0 no injury, 100 complete control
[10] = Rate 125 g/ha, 0 no injury, 100 complete control
[11] = Rate 31 g/ha, Postemergence, scale 0 to 10
[12] = Postemergence, Rate 125 g/ha, scale of 0 to 10 where 0 is no effect and 10 is complete control
[13] = Preemergence, Rate 62 g/ha, scale 0 to 10 (0 no effect, 10 complete control)
[14] = Preemergence, Rate 125 g/ha, 0 is no effect, 10 is complete control
[15] = Preemergence, Rate 250 g/ha, scale 0 to 10, 0 is no effect, 10 is complete control
[16] = Preemergence, Rate 500 g/ha, scale 0 to 10 (0 no effect, 10 complete control)
[17] = Rate 62 g/ha, Postemergence, scale of 0 to 10 where 0 is no effect and 10 is complete control
[18] = Rate 250 g/ha, Postemergence, scale 0 to 10, 0 is no effect, 10 is complete control
[19] = Rate 500 g/ha, Postemergence, scale 0 to 10

For Cc1cccc(C)c1-n1c(=O)on(C(=O)N(c2ccc(F)cc2F)C(C)C)c1=O [Compound 28], the “Wheat plant response rating” value (wheat; [1]) was 0, the “Wheat plant response rating” value (wheat; [2]) was 0 and the “Wheat plant response rating” value (wheat; [3]) was 0. The “Plant response rating, Wheat” value (wheat; [4]) was 0, the “Plant response rating, Wheat” value (wheat; [5]) was 0 and the “Plant response rating, Wheat” value (wheat; [6]) was 0. For the same molecule, the “Wheat plant response rating” value (wheat; [7]) was 0, the “Plant response rating Johnsongrass” value (Johnson grass; [8]) was 0 and the “Plant response rating Johnsongrass” value (Johnson grass; [9]) was 0. For the same molecule, the “Plant response rating Johnsongrass” value (Johnson grass; [10]) was 0, the “Plant response rating Johnsongrass” value (Johnson grass; Rate 250 g/ha) was 0 and the “Giant foxtail plant response rating” value (giant foxtail; [1]) was 1. The “Giant foxtail plant response rating” value (giant foxtail; [2]) was 4, the “Giant foxtail plant response rating” value (giant foxtail; [3]) was 0 and the “Plant response rating, Giant foxtail” value (giant foxtail; [4]) was 2. The “Plant response rating, Giant foxtail” value (giant foxtail; [5]) was 5, the “Plant response rating, Giant foxtail” value (giant foxtail; [6]) was 7 and the “Giant foxtail plant response rating” value (giant foxtail; [11]) was 1. The “Giant foxtail plant response rating” value (giant foxtail; [7]) was 2, the “Ducksalad plant response rating” value (duck salad; [1]) was 0 and the “Ducksalad plant response rating” value (duck salad; Rate 125 g/ha, Postemergence section (flood test species), scale 0 to 10, 0 no effect, 10 complete control) was 0. For the same molecule, the “Ducksalad plant response rating” value (duck salad; Rate 500 g/ha, Postemergence section of Table B, 0 to 10 scale (0 no effect, 10 complete control)) was 4, the “Ducksalad plant response rating” value (duck salad; flood test, listed under Postemergence, Rate 250 g/ha, scale 0 to 10, 0 no effect, 10 complete control) was 0 and the “Plant response rating, Purple nutsedge” value (purple nutsedge; [8]) was 0. The “Purple nutsedge plant response rating” value (purple nutsedge; [9]) was 0, the “Purple nutsedge plant response rating” value (purple nutsedge; [10]) was 0 and the “Plant response rating, Purple nutsedge” value (purple nutsedge; Rate 250 g/ha) was 0. The “Plant response rating, C. purslane” value (common pursiane; [8]) was 0, the “Plant response rating, C. purslane” value (common pursiane; [9]) was 0 and the “Plant response rating, C. purslane” value (common pursiane; [10]) was 0. The “Plant response rating, C. purslane” value (common pursiane; Rate 250 g/ha) was 0, the “Crabgrass plant response rating” value (crabgrass; [1]) was 3 and the “Crabgrass plant response rating” value (crabgrass; [2]) was 9. The “Crabgrass plant response rating” value (crabgrass; [3]) was 2, the “Plant response rating, Crabgrass” value (crabgrass; [4]) was 3 and the “Plant response rating, Crabgrass” value (crabgrass; [5]) was 7. For the same molecule, the “Plant response rating, Crabgrass” value (crabgrass; [6]) was 9, the “Crabgrass plant response rating” value (crabgrass; [11]) was 1 and the “Crabgrass plant response rating” value (crabgrass; [7]) was 6.
With C=C(C)Cn1c(=O)on(C(=O)N(c2ccc(F)cc2)C(C)C)c1=O [Compound 139] the “Wheat plant response rating” value (wheat; [12]) was 2, the “Wheat plant response rating” value (wheat; [13]) was 0 and the “Wheat plant response rating (0 to 10 scale)” value (wheat; [14]) was 0. For the same molecule, the “Wheat plant response rating” value (wheat; [15]) was 2, the “Wheat plant response rating” value (wheat; [16]) was 4 and the “Wheat plant response rating” value (wheat; [17]) was 2. The “Plant response rating, Wheat” value (wheat; [18]) was 4, the “Wheat plant response rating” value (wheat; [19]) was 4 and the “Plant response rating Johnsongrass” value (Johnson grass; [9]) was 10. For the same molecule, the “Giant foxtail plant response rating” value (giant foxtail; [12]) was 8, the “Giant foxtail plant response rating” value (giant foxtail; [13]) was 10 and the “Giant foxtail plant response rating (0 to 10 scale)” value (giant foxtail; [14]) was 10. The “Giant foxtail plant response rating” value (giant foxtail; [15]) was 10, the “Giant foxtail plant response rating” value (giant foxtail; [16]) was 10 and the “Giant foxtail plant response rating” value (giant foxtail; [17]) was 6. The “Plant response rating, Giant foxtail” value (giant foxtail; [18]) was 9, the “Giant foxtail plant response rating” value (giant foxtail; [19]) was 9 and the “Ducksalad plant response rating” value (duck salad; Postemergence (flood test species), Rate 125 g/ha, scale of 0 to 10 where 0 is no effect and 10 is complete control) was 0. The “Ducksalad plant response rating” value (duck salad; Rate 31 g/ha, Postemergence section (flood test species), scale 0 to 10) was 0, the “Ducksalad plant response rating” value (duck salad; Rate 62 g/ha, Postemergence section, flood test species, scale of 0 to 10 where 0 is no effect and 10 is complete control) was 0 and the “Plant response rating, Ducksalad” value (duck salad; Rate 250 g/ha, Postemergence (flood test), scale 0 to 10, 0 is no effect, 10 is complete control) was 0. For the same molecule, the “Ducksalad plant response rating” value (duck salad; Rate 250 g/ha, Pre-emergence, flood-test species, scale 0 to 10, 0 is no effect, 10 is complete control) was 0, the “Plant response rating, Ducksalad” value (duck salad; Rate 500 g/ha, headed Pre-emergence (flood test species), scale 0 to 10 (0 no effect, 10 complete control)) was 0 and the “Ducksalad plant response rating” value (duck salad; Rate 1000 g/ha, Pre-emergence (as headed), scale 0 to 10) was 0. For the same molecule, the “Ducksalad plant response rating” value (duck salad; Rate 2000 g/ha, Pre-emergence (as headed), scale 0 to 10) was 2, the “Purple nutsedge plant response rating” value (purple nutsedge; [9]) was 0 and the “Plant response rating, C. purslane” value (common pursiane; [9]) was 0. For the same molecule, the “Crabgrass plant response rating” value (crabgrass; [12]) was 8, the “Crabgrass plant response rating” value (crabgrass; [13]) was 7 and the “Crabgrass plant response rating (0 to 10 scale)” value (crabgrass; [14]) was 10. The “Crabgrass plant response rating” value (crabgrass; [15]) was 10, the “Crabgrass plant response rating” value (crabgrass; [16]) was 10 and the “Crabgrass plant response rating” value (crabgrass; [17]) was 8. For the same molecule, the “Plant response rating, Crabgrass” value (crabgrass; [18]) was 9 and the “Crabgrass plant response rating” value (crabgrass; [19]) was 9.
